Test results reported in patent US20100222396A1 (Novartis AG, priority 2009, published 2010).

Experiments:
[1] = biological target: T1, human orexin 1 receptor (hOx1R) (Homo sapiens, UniProt O43613); experiment: Calcium accumulation in cells (FLIPR), antagonism of orexin A, hOx1R; type: cell-based; settings: for inhibition at 10 µM: measured at a concentration of 10 μM of compound (cells marked ^a); for Kd: cells expressing human orexin 1 receptor, IC50 vs orexin A converted by Cheng and Prusoff correction
T1 construct: expressed in transfected cells
T1 sequence (O43613 1-425): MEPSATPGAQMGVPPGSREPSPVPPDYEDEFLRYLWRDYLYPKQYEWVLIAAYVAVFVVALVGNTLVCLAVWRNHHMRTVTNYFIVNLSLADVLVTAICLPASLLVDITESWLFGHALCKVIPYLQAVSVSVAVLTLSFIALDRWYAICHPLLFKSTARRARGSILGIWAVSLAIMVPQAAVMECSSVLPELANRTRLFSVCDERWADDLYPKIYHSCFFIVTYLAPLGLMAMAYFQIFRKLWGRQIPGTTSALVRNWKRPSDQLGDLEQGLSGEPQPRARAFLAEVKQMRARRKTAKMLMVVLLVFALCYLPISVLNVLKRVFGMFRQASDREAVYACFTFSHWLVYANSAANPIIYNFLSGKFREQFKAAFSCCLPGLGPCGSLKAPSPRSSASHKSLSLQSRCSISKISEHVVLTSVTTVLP
Summary of the method: (§1)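 Serum-starved receptor-expressing cells were loaded with Fluo-4-AM (2 μM) plus probenecid (0.1 mM) in HEPES buffer, pH 7.4, with 1% BSA, and Ca2+ fluorescence was read on FLIPR. Compounds (10^−9–10^−5 M) were added first, and orexin A was added one hour later to measure antagonism.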

[2] = biological target: T2, human orexin 2 receptor (hOx2R) (Homo sapiens, UniProt O43614); experiment: Calcium accumulation in cells (FLIPR), antagonism of orexin A, hOx2R; type: cell-based; settings: for Kd: cells expressing human orexin 2 receptor, IC50 vs orexin A converted by Cheng and Prusoff correction
T2 construct: expressed in transfected cells
T2 sequence (O43614 1-444): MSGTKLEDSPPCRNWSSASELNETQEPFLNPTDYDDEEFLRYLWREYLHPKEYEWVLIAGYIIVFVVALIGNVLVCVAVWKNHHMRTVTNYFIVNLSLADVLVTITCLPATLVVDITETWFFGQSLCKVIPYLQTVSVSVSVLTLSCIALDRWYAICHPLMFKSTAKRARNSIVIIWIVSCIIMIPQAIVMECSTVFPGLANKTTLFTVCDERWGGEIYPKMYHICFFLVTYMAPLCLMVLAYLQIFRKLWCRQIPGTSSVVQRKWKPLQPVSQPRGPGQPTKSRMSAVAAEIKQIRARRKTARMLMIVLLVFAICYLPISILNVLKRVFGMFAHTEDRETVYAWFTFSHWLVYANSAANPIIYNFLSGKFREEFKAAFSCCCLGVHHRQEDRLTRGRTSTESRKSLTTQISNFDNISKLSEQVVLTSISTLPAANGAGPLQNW
Summary of the method: as §1

[3] = biological target: T1, human orexin 1 receptor (hOx1R); experiment: Radioligand binding assay ([125I]orexin A competition), hOx1R; settings: CHO or HEK cell membranes, 1 h room temperature
Summary of the method: (§2)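 Membranes from CHO or HEK cells expressing the human receptor, incubated 1 h at room temperature with […] [125I]orexin A and compound in HEPES pH 7.5 buffer with BSA, MgCl2, CaCl2 and tween.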

[4] = biological target: T2, human orexin 2 receptor (hOx2R); experiment: Radioligand binding assay ([125I]orexin A competition), hOx2R; settings: CHO or HEK cell membranes, 1 h room temperature
Summary of the method: as §2

| Compound | inhibition at 10 µM [1] | Kd [2] | Kd [3] | Kd [4] | Kd [1] | inhibition at 10 µM ([2]; measured at a concentration of 10 μM of compound (cells marked ^a)) |
| --- | --- | --- | --- | --- | --- | --- |
| CN(C(=O)c1ccccc1)[C@H](CCNC(=O)c1cccc2c1OCC2)Cc1ccccc1 [Example 67, 2,3-Dihydro-benzofuran-7-carboxylic acid [(S)-3-(benzoyl-methyl-amino)-4-phenyl-butyl]-amide] | 33% | 180 nM | 1080 nM | 114 nM |  |  |
| CN(C(=O)c1ccccc1)[C@H](CCNC(=O)c1ccc2c(c1)OCO2)Cc1ccccc1 [Example 93, Benzo[1,3]dioxole-5-carboxylic acid [(S)-3-(benzoyl-methyl-amino)-4-phenyl-butyl]-amide] | 30% | 164 nM | 3110 nM | 114 nM |  |  |
| COc1cccc(C(=O)N(C)[C@H](CCNC(=O)c2nc3ccccc3n2C)Cc2ccccc2)c1 [Example 79, 1-Methyl-1H-benzoimidazole-2-carboxylic acid {(S)-3-[(3-methoxy-benzoyl)-methyl-amino]-4-phenyl-butyl}-amide] |  | 12 nM | 73 nM | 30 nM | 225 nM |  |
| CN(C(=O)c1ccc2c(c1)OCO2)[C@H](CCNC(=O)c1ccc2c(c1)OCO2)Cc1ccccc1 [Example 62, Benzo[1,3]dioxole-5-carboxylic acid {(S)-3-[(benzo[1,3]dioxole-5-carbonyl)-amino]-1-benzyl-propyl}-methyl-amide] |  | 22 nM | 222 nM | 47 nM | 872 nM |  |
| CN(C(=O)c1ccc(C(F)(F)F)cc1)[C@H](CCNC(=O)c1ccccn1)Cc1ccccc1 [Example 73, Pyridine-2-carboxylic acid {(S)-3-[methyl-(4-trifluoromethyl-benzoyl)-amino]-4-phenyl-butyl}-amide] |  | 1310 nM | > 10000 nM | > 10000 nM | 1920 nM |  |
| CCN(C(=O)c1ccc2c(c1)OCO2)[C@H](CCNC(=O)c1ccccn1)Cc1ccccc1 [Example 8, Pyridine-2-carboxylic acid {(S)-3-[(benzo[1,3]dioxole-5-carbonyl)-ethyl-amino]-4-phenyl-butyl}-amide] |  | 32 nM | 270 nM | 46 nM | 211 nM |  |
| Cc1nc2sccn2c1C(=O)NCC[C@H](Cc1ccccc1)N(C)C(=O)c1ccccc1 [Example 33, 6-Methyl-imidazo[2,1-b]thiazole-5-carboxylic acid [(S)-3-(benzoyl-methyl-amino)-4-phenyl-butyl]-amide] |  | 76 nM | 5730 nM | 450 nM | 1960 nM |  |
| CN(C(=O)c1cccc2ccccc12)[C@H](CCNC(=O)c1ccccn1)Cc1ccc(Cl)cc1 [Example 35, Pyridine-2-carboxylic acid {(S)-4-(4-chloro-phenyl)-3-[methyl-(naphthalene-1-carbonyl)-amino]-butyl}-amide] |  | 9 nM | 1330 nM | 468 nM | 80 nM |  |
| CN(C(=O)c1ccc2c(c1)OCO2)[C@H](CCNC(=O)c1nc2ccccc2n1C)Cc1ccccc1 [Example 31, 1-Methyl-1H-benzoimidazole-2-carboxylic acid {(S)-3-[(benzo[1,3]dioxole-5-carbonyl)-methyl-amino]-4-phenyl-butyl}-amide] |  | 43 nM | 164 nM | 410 nM | 57 nM |  |
| CN(C(=O)c1ccccc1)[C@H](CCNC(=O)c1ccccn1)Cc1ccc(F)cc1 [Example 66, Pyridine-2-carboxylic acid [(S)-3-(benzoyl-methyl-amino)-4-(4-fluoro-phenyl)-butyl]-amide] | 0% |  | > 10000 nM | 7120 nM |  | 33% |
| CN(C(=O)c1ccc2c(c1)OC(F)(F)O2)[C@H](CCNC(=O)c1cccn1C)Cc1ccccc1 [Example 107, 1-Methyl-1H-pyrrole-2-carboxylic acid {(S)-3-[(2,2-difluoro-benzo[1,3]dioxole-5-carbonyl)-methyl-amino]-4-phenyl-butyl}-amide] |  | 54 nM | 2510 nM | 162 nM | 1070 nM |  |
| CN(C(=O)c1ccc2c(c1)CCN2)[C@H](CCNC(=O)c1ccccn1)Cc1ccccc1 [Example 23, 2,3-Dihydro-1H-indole-5-carboxylic acid {(S)-1-benzyl-3-[(pyridine-2-carbonyl)-amino]-propyl}-methyl-amide] |  | 419 nM | 52 nM | 265 nM | 152 nM |  |
| Cc1cccc(C(=O)N(C)[C@H](CCNC(=O)c2cccn2C)Cc2ccccc2)c1 [Example 119, 1-Methyl-1H-pyrrole-2-carboxylic acid {(8)-3-[methyl-(3-methyl-benzoyl)-amino]-4-phenyl-butyl}-amide] |  | 4 nM | 249 nM | 14 nM | 534 nM |  |
| CN(C(=O)c1cccc2c1ccn2C)[C@H](CCNC(=O)c1ccccn1)Cc1ccccc1 [Example 40, 1-Methyl-1H-indole-4-carboxylic acid {(S)-1-benzyl-3-[(pyridine-2-carbonyl)-amino]-propyl}-methyl-amide] |  | 221 nM | 125 nM | 619 nM | 193 nM |  |
| CN(C(=O)c1cccc2[nH]ccc12)[C@H](CCNC(=O)c1nc2ccccc2n1C)Cc1ccccc1 [Example 3, 1-Methyl-1H-benzoimidazole-2-carboxylic acid {(S)-3-[(1H-indole-4-carbonyl)-methyl-amino]-4-phenyl-butyl}-amide] |  | 3 nM | 17 nM | 10 nM | 48 nM |  |
